Source: PMC3931744, “Discovery of Selective Inhibitors of the Clostridium difficile Dehydroquinate Dehydratase” (PLoS ONE, 2014)
Where “and” joins values, the source holds several entries; their conditions need not be identical. Equal values may be shown once. Read-outs that look alike come from different tables or passages of the source.

Key:
vcDHQD (type II DHQD) = target: T1, vcDHQD (type II DHQD) (Vibrio cholerae, UniProt Q9KV60); assay: vcDHQD inhibition, DHQD panel; assay type: biochemical
T1 sequence (Q9KV60 1-150): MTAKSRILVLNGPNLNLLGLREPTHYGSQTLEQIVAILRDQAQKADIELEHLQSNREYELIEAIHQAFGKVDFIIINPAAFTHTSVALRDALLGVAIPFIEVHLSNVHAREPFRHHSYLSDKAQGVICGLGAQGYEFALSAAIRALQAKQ

ypDHQD (type II DHQD) = ypDHQD (type II DHQD) (Yersinia pestis, UniProt Q8ZAX1); assay: biochemical
cdDHQD [1] = target: T2, cdDHQD (Clostridioides difficile, UniProt Q186A6); assay: biochemical; design: species or system Clostridium difficile
seDHQD [2] = target: T3, seDHQD (Salmonella typhimurium, UniProt P58687); assay: NMR line broadening with seDHQD; assay type: binding, Salmonella enterica; settings: similar compound concentrations; 10 µM DHQD, 100 µM compound
From the text: Supplementary Figure S2. NMR data for binding of compounds 1 and 2 to cdDHQD. (A) Line broadening observed for compound 1 upon addition of cdDHQD or seDHQD. (B) Line broadening observed for compound 2 upon addition of cdDHQD or seDHQD. […] Line widths were estimated using NMRDraw (Delaglio et al., 1995).

cdDHQD [3] = target: T2, cdDHQD; settings: 10 µM DHQD, 100 µM compound
cdDHQD [4] = target: T2, cdDHQD; assay: biochemical
btDHQD (type II DHQD) = target: T4, btDHQD (type II DHQD) (Bacteroides thetaiotaomicron, UniProt Q8A3W2); assay: btDHQD inhibition, primary screen DHQD assay
T4 sequence (Q8A3W2 1-140): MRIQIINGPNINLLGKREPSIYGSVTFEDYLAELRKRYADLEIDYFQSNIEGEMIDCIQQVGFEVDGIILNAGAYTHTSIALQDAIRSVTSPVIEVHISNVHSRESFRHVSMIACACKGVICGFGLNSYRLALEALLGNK

cdDHQD [5] = target: T2, cdDHQD; assay: biochemical; settings: Kd for binding to cdDHQD (WaterLOGSY), NMR titration; PBS pH 7.2, 25°C
seDHQD [6] = target: T3, seDHQD; assay: WaterLOGSY NMR titration with seDHQD; settings: Kd for binding to seDHQD (WaterLOGSY), PBS pH 7.2, 25°C
[7] = type II DHQD, read-out: IC50 vcDHQD
[8] = Kd for binding to cdDHQD (line broadening, double reciprocal plot), NMR, PBS pH 7.2, 25°C
[9] = Kd for binding to cdDHQD, fit of single resonances, NMR titration, two different resonances per compound (Figure 3A, 3B)
[10] = 200 µM compound, substrate up to 5 mM

T2 sequence (Q186A6 whole entry): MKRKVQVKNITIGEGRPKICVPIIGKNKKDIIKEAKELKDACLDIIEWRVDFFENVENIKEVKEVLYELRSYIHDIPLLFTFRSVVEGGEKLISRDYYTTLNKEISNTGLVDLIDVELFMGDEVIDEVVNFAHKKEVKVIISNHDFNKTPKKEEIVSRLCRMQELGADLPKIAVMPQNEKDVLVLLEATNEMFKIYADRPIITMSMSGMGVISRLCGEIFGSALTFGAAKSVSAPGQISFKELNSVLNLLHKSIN
T3 sequence (P58687 whole entry): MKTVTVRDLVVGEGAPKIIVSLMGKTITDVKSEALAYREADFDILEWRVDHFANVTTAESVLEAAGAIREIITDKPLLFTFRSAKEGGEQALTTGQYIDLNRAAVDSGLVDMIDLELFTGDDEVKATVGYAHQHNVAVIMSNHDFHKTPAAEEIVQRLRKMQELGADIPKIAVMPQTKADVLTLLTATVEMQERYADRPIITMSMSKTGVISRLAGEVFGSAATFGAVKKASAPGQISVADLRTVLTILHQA
Chain of ypDHQD (type II DHQD) (Q8ZAX1 whole entry, looked up): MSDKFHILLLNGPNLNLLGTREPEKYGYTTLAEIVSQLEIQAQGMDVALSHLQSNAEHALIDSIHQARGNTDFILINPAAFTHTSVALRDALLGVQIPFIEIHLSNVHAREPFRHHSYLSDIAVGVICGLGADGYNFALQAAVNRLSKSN

Compound | IC50 (vcDHQD (type II DHQD); [7]) | IC50 (ypDHQD (type II DHQD)) | Ki (cdDHQD [1]) | line broadening of compound resonances with seDHQD (seDHQD [2]) | line broadening of compound resonances with cdDHQD (cdDHQD [3]) | Kd (cdDHQD [4]; [8]) | Kd (cdDHQD [4]; [9]) | IC50 (btDHQD (type II DHQD)) | IC50 (vcDHQD (type II DHQD)) | Vmax in presence of inhibitor (cdDHQD [1]; [10]) | increase of apparent Km (cdDHQD [1]; [10]) | mechanism of inhibition (cdDHQD [1]; from Km/Vmax at high substrate) | Kd (cdDHQD [5]) | Kd (seDHQD [6])
O=S(=O)(Nc1nc(-c2ccccc2)cs1)c1cc(Cl)ccc1Cl [Compound 1] | > 200 µM | > 200 µM | 11 to 15 µM | < 1 Hz | > 6 Hz | ~27 µM and ~25 µM | 35 µM and 18 µM | > 200 µM |  |  |  |  |  | 
COc1ccc2nc(NS(=O)(=O)c3cc(Cl)ccc3Cl)sc2c1 [Compound 2] |  | > 200 µM |  | < 1 Hz | > 6 Hz | ~25 µM | 15 µM and 34 µM | > 200 µM | > 200 µM |  |  |  |  | 
O=C(O)c1ccccc1NC(=O)c1csc2c1CCCC2 [Compound 3] | > 200 µM | > 200 µM | 19 to 22 µM |  |  |  |  | > 200 µM |  | unchanged | 10 fold | competitive | ~65 µM and 67 µM | ~400 µM and ~390 µM
